In US7074789B2, “Kinase inhibitors” (Amgen Inc., priority 1999, dated 2006):

Tests used:
Type in all cases: biochemical
c-Met = target: T1, c-Met (Homo sapiens, UniProt P08581); assay: Kinase inhibition assay (33P transfer), c-Met; conditions: Table 2, kinase inhibition class; read-out: Met-1
T1 construct: Kinases are expressed as either kinase domains or full length constructs; made in house
Summary of the method: (§1)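 Radiometric format: recombinant tagged kinase (catalytic domain or whole protein, sometimes combined with regulatory polypeptides) phosphorylates immobilised poly(Glu,Tyr) 4:1 or poly(Arg,Ser) 3:1 using [33P]ATP. Wells are washed in 0.5% phosphoric acid, then counted. IC50 is taken where substrate labelling falls by half.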

Tek = target: T2, Tek (Homo sapiens, UniProt Q02763); assay: Kinase inhibition assay (33P transfer), Tek; conditions: read-out: Tek-1
T2 construct: Kinases are expressed as either kinase domains or full length constructs; made in house
T2 sequence (Q02763 23-1124, species assumed): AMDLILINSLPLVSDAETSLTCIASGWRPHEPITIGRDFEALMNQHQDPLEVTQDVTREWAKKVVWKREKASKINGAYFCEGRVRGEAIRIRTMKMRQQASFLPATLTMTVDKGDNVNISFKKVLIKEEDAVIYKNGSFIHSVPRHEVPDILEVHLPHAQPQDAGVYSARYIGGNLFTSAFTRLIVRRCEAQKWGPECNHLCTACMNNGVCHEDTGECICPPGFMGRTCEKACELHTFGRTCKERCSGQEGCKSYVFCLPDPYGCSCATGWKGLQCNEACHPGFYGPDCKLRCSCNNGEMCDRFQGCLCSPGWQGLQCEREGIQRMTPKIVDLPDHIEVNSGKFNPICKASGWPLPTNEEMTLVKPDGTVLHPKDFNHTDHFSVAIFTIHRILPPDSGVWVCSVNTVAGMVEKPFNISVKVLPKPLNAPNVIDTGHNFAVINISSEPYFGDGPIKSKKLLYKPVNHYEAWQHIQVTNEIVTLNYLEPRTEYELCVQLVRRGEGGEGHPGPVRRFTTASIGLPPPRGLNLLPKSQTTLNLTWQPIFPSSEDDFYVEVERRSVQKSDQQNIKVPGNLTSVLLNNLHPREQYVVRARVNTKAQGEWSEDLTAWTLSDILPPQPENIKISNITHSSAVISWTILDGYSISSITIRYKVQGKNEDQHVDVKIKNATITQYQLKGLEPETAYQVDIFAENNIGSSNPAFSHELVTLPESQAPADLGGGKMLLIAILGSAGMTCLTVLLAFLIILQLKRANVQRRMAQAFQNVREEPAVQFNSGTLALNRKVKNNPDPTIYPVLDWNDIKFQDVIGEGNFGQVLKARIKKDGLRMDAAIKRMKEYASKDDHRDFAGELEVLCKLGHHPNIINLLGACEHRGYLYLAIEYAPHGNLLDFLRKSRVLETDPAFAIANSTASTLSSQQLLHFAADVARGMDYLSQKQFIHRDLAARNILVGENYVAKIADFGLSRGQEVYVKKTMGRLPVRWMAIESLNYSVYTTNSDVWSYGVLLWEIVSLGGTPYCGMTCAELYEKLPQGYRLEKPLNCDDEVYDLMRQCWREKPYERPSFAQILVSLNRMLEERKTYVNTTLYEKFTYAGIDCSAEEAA
Summary of the method: as §1

Fyn = target: T3, Fyn (Homo sapiens, UniProt P06241); assay: Kinase inhibition assay (33P transfer), Fyn; conditions: read-out: Fyn-1
T3 construct: Kinases are expressed as either kinase domains or full length constructs; made in house
Summary of the method: as §1

ErbB4 = target: T4, ErbB4 (Homo sapiens, UniProt Q15303); assay: Kinase inhibition assay (33P transfer), ErbB4; conditions: read-out: ErbB4-1
T4 construct: Kinases are expressed as either kinase domains or full length constructs; made in house

IGFR-1 = target: T5, IGFR-1 (Homo sapiens, UniProt P08069); assay: Kinase inhibition assay (33P transfer), IGFR-1; conditions: Table 2, kinase inhibition class
T5 construct: Kinases are expressed as either kinase domains or full length constructs; made in house
T5 sequence (P08069 31-1367): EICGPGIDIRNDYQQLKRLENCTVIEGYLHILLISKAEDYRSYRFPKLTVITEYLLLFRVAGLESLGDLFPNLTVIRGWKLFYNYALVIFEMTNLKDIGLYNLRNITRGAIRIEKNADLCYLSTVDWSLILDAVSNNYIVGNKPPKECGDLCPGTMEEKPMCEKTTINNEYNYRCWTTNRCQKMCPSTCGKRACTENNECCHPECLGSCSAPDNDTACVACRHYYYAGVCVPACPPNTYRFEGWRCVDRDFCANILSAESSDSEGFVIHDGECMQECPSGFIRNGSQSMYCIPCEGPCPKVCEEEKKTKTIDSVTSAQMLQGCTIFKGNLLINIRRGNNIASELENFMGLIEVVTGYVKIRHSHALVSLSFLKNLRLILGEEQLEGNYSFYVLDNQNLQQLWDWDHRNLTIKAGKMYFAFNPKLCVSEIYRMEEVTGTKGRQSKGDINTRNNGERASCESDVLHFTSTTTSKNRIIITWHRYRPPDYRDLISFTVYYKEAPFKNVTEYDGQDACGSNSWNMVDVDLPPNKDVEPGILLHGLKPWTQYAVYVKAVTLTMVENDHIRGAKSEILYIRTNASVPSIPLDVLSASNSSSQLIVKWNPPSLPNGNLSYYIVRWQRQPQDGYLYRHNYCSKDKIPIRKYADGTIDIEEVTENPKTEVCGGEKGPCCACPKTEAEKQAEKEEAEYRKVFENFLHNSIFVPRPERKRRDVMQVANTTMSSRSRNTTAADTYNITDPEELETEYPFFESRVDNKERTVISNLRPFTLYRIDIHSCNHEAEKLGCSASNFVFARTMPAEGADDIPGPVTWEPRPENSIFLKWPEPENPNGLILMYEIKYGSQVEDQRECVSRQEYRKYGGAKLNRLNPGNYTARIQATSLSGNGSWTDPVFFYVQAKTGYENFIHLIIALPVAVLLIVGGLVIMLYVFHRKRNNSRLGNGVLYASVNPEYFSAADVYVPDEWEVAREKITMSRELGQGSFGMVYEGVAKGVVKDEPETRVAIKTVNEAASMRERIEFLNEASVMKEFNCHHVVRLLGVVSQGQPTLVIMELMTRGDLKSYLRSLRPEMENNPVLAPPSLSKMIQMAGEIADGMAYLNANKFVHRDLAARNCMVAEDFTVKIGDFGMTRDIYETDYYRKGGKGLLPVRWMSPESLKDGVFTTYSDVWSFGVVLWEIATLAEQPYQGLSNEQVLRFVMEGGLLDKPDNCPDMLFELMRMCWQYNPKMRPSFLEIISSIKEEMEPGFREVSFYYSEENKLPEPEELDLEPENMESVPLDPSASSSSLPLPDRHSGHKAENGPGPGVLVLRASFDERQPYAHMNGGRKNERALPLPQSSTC

EGFR = target: T6, EGFR (Homo sapiens, UniProt P00533); assay: Kinase inhibition assay (33P transfer), EGFR; conditions: Table 2, kinase inhibition class; read-out: EGFR-1
T6 construct: Kinases are expressed as either kinase domains or full length constructs; made in house
Summary of the method: as §1

Itk = target: T7, Itk (Homo sapiens, UniProt Q08881); assay: Kinase inhibition assay (33P transfer), Itk; conditions: Table 3; read-out: Itk-1
T7 construct: Kinases are expressed as either kinase domains or full length constructs; made in house
T7 sequence (Q08881 1-620): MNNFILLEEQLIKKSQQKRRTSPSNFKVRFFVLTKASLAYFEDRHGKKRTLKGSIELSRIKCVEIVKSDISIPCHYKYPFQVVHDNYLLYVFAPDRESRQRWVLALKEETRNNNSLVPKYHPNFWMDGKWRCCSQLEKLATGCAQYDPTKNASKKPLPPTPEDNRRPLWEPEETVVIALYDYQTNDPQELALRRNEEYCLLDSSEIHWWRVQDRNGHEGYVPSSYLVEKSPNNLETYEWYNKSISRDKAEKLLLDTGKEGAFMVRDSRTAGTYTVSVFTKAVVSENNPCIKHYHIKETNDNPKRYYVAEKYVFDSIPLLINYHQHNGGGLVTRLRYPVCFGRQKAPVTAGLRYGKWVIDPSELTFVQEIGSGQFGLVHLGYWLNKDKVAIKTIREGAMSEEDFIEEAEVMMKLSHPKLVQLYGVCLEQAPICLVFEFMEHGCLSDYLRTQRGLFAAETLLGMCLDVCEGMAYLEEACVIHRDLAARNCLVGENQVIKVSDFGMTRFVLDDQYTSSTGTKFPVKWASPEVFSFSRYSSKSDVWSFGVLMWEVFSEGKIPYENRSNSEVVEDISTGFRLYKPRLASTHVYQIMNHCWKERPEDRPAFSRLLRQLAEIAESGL
Summary of the method: as §1

Hck-1 = target: T8, Hck-1 (Homo sapiens, UniProt P08631); assay: Kinase inhibition assay (33P transfer), Hck; conditions: Table 6, Hck-1 kinase inhibition class
T8 construct: Kinases are expressed as either kinase domains or full length constructs; made in house

Lck = target: T9, Lck (Homo sapiens, UniProt P06239); assay: Kinase inhibition assay (33P transfer), Lck; conditions: Table 3; read-out: Lck-1
T9 construct: Kinases are expressed as either kinase domains or full length constructs; made in house
Summary of the method: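 Liquid scintillation counting of 33P on plate-bound synthetic substrates gives kinase activity. Plates are washed in 0.5% phosphoric acid first; kinases are tagged recombinant proteins from E. coli or baculovirus-infected High Five cells.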

PDGFRB = target: T10, PDGFRB (Homo sapiens, UniProt P09619); assay: Kinase inhibition assay (33P transfer), PDGFRB; conditions: read-out: PDGFRB-1
T10 construct: Kinases are expressed as either kinase domains or full length constructs; made in house
T10 sequence (P09619 33-1106, species assumed): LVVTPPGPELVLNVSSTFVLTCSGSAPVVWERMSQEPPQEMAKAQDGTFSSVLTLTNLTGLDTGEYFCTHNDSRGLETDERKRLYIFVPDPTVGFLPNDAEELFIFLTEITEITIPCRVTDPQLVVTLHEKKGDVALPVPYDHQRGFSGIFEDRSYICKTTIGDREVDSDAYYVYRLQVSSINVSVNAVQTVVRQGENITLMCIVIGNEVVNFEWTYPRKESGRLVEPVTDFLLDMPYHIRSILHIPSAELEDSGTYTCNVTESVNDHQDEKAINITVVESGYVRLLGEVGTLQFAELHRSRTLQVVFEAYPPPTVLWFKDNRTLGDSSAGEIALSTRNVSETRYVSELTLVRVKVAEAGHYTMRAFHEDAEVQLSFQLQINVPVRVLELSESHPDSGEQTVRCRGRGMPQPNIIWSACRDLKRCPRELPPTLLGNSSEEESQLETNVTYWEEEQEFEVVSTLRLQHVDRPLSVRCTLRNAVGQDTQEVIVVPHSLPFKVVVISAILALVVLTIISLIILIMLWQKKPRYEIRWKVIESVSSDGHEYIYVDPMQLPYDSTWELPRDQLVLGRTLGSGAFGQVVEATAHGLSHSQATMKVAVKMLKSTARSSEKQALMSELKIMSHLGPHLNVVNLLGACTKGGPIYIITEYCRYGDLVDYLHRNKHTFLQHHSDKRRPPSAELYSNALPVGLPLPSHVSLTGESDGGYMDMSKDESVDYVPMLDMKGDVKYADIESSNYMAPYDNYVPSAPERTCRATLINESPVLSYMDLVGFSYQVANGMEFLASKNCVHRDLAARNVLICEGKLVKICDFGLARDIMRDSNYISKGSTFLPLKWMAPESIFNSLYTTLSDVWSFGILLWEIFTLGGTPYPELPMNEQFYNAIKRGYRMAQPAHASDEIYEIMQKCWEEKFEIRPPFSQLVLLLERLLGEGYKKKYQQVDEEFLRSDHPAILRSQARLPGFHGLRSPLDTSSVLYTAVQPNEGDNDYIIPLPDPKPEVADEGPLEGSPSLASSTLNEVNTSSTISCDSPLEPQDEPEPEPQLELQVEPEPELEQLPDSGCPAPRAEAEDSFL

Flt-1 = target: T11, Flt-1 (Homo sapiens, UniProt P17948); assay: Kinase inhibition assay (33P transfer), Flt-1
T11 construct: Kinases are expressed as either kinase domains or full length constructs; made in house
Summary of the method: as §1

FGFR1 = target: T12, FGFR1 (Homo sapiens, UniProt P11362); assay: Kinase inhibition assay (33P transfer), FGFR1; conditions: read-out: FGFR1-1
T12 construct: Kinases are expressed as either kinase domains or full length constructs; made in house

T1 sequence (P08581 25-1390): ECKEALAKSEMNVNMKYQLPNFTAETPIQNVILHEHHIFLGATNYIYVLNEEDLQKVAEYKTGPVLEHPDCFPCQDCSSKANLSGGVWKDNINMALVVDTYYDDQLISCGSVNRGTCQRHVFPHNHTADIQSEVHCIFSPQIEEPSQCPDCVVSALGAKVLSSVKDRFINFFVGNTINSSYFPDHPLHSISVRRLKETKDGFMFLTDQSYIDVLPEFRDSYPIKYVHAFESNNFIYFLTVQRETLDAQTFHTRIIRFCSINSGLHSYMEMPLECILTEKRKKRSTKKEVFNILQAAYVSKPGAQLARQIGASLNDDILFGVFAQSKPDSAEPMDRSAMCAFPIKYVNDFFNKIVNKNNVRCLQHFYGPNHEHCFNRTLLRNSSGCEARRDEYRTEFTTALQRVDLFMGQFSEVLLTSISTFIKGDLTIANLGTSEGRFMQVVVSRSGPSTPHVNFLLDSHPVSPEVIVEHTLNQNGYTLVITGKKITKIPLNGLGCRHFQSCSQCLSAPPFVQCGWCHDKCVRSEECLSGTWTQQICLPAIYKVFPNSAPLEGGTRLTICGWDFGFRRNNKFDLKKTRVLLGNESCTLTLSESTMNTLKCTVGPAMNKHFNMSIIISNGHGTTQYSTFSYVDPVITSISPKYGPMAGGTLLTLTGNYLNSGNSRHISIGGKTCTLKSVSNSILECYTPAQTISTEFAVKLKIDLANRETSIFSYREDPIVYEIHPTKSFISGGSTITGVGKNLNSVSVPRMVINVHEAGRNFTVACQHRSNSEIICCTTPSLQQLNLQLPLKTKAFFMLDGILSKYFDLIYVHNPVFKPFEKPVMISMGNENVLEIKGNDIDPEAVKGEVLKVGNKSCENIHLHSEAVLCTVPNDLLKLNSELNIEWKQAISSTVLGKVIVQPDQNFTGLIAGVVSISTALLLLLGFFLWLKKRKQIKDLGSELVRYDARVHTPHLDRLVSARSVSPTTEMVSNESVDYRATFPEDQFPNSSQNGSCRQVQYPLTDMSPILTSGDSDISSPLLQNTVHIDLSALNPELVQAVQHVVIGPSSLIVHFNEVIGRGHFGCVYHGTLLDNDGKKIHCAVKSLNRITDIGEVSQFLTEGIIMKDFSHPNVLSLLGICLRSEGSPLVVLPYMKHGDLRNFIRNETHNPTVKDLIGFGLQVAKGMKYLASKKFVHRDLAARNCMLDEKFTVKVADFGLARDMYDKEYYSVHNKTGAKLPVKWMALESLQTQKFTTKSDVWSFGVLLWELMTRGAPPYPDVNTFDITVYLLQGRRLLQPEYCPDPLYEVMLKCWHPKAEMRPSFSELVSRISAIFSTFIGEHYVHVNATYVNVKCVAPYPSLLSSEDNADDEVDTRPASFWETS

Structure (SMILES) | IC50 (c-Met) [µM] | IC50 (Tek) [µM] | IC50 (Fyn) [µM] | IC50 (ErbB4) [µM] | IC50 (IGFR-1) [µM] | IC50 (EGFR) [µM] | IC50 (Itk) [µM] | IC50 (Hck-1) [µM] | IC50 (Lck) [µM] | IC50 (PDGFRB) [µM] | IC50 (Flt-1) [µM] | IC50 (FGFR1) [µM]
C#Cc1cccc(Nc2ncnc(Nc3cc(OC)c(OC)c(OC)c3)n2)c1 [Compound 74] | 9.27 to 11.9 | > 11.9 | > 11.9 | > 11.9 | < 1.06 | < 1.06 | > 11.9 | > 11.9 | 1.06 to 6.36 | – | – | –
COc1cc(Nc2ncnc(-n3c(Nc4ccc(F)cc4)nc4ccccc43)n2)cc(OC)c1OC [Compound 387] | 7.18 to 9.23 | > 9.23 | > 9.23 | > 9.23 | > 9.23 | > 9.23 | > 9.23 | > 9.23 | 0.821 to 4.92 | < 0.821 | < 0.821 | 0.821 to 4.92
COc1cc(Nc2ncnc(-n3c(Nc4ccc(C)cc4)nc4ccccc43)n2)cc(OC)c1OC [Compound 385] | > 9.31 | > 9.31 | > 9.31 | > 9.31 | > 9.31 | > 9.31 | > 9.31 | > 9.31 | 0.827 to 4.96 | < 0.827 | < 0.827 | < 0.827
COc1cc(Nc2ncnc(-n3c(Nc4ccccc4C)nc4ccccc43)n2)cc(OC)c1OC [Compound 384] | 7.24 to 9.31 | > 9.31 | 0.827 to 4.96 | > 9.31 | > 9.31 | 7.24 to 9.31 | > 9.31 | > 9.31 | < 0.827 | < 0.827 | > 9.31 | 0.827 to 4.96
COc1cc(Nc2ncnc(Nc3ccc(C)c(O)c3)n2)cc(OC)c1OC [Compound 83] | > 11.7 | 9.13 to 11.7 | < 1.04 | 1.04 to 6.26 | 1.04 to 6.26 | < 1.04 | 1.04 to 6.26 | 1.04 to 6.26 | < 1.04 | < 1.04 | < 1.04 | < 1.04
COc1cc(Nc2ncnc(Nc3cc(-c4ccc(Cl)cc4)n[nH]3)n2)cc(OC)c1OC [Compound 367] | < 0.881 | 7.71 to 9.91 | 0.881 to 5.29 | > 9.91 | < 0.881 | 5.29 to 7.71 | 0.881 to 5.29 | > 9.91 | 0.881 to 5.29 | > 9.91 | 0.881 to 5.29 | 5.29 to 7.71
COc1cc(Nc2ncnc(Nc3ccc(Cl)cc3)n2)cc(OC)c1OC [Compound 72] | 9.02 to 11.6 | > 11.6 | – | 1.03 to 6.19 | < 1.03 | 1.03 to 6.19 | > 11.6 | – | 1.03 to 6.19 | < 1.03 | < 1.03 | < 1.03
COc1cc(Nc2ncnc(-n3c(Cl)nc4ccccc43)n2)cc(OC)c1OC [Compound 378] | 0.969 to 5.81 | 8.48 to 10.9 | 5.81 to 8.48 | > 10.9 | 0.969 to 5.81 | > 10.9 | > 10.9 | > 10.9 | 5.81 to 8.48 | 0.969 to 5.81 | 0.969 to 5.81 | < 0.969
COc1cc(Nc2ncnc(Nc3ccc(Oc4ccccc4)cc3)n2)cc(OC)c1OC [Compound 29] | 7.86 to 10.1 | > 10.1 | < 0.898 | 0.898 to 5.39 | 5.39 to 7.86 | < 0.898 | > 10.1 | > 10.1 | < 0.898 | 0.898 to 5.39 | < 0.898 | < 0.898
COc1cc(Nc2ncnc(Nc3ccc(F)c(Cl)c3)n2)cc(OC)c1OC [Compound 61] | > 11.1 | – | < 0.986 | > 11.1 | < 0.986 | < 0.986 | > 11.1 | > 11.1 | < 0.986 | < 0.986 | < 0.986 | > 11.1
NC(=O)c1cccc(Nc2ncnc(-n3c(N)nc4ccccc43)n2)c1 [Compound 395] | 1.15 to 6.93 | 1.15 to 6.93 | 6.93 to 10.1 | > 13 | 1.15 to 6.93 | > 13 | 1.15 to 6.93 | > 13 | 6.93 to 10.1 | 1.15 to 6.93 | < 1.15 | < 1.15
COc1cc(Nc2ncnc(Nc3cc(-c4ccccc4)n[nH]3)n2)cc(OC)c1OC [Compound 102] | < 0.954 | 5.72 to 8.34 | < 0.954 | < 0.954 | < 0.954 | 0.954 to 5.72 | 0.954 to 5.72 | 5.72 to 8.34 | < 0.954 | 5.72 to 8.34 | < 0.954 | 0.954 to 5.72
COc1cc(Nc2ncnc(Nc3ccc4ccccc4c3)n2)cc(OC)c1OC [Compound 96] | > 11.2 | > 11.2 | 8.68 to 11.2 | 0.991 to 5.95 | – | 0.991 to 5.95 | > 11.2 | 8.68 to 11.2 | 0.991 to 5.95 | 0.991 to 5.95 | 8.68 to 11.2 | > 11.2
COc1cc(Nc2ncnc(NC(=O)Nc3ccccc3)n2)cc(OC)c1OC [Compound 852] | 6.05 to 8.83 | – | > 11.4 | > 11.4 | < 1.01 | > 11.4 | > 11.4 | > 11.4 | > 11.4 | 8.83 to 11.4 | > 11.4 | > 11.4
